From patent US20230192720A1, “MACROCYCLIC COMPOUNDS” (ZENO MANAGEMENT, INC., priority 2019, published 2023)

Tests used:
Mcl-1 = Mcl-1 (Homo sapiens, UniProt Q07820); test: Mcl-1 Homogeneous Time Resolved Fluorescence (HTRF) binding assay
NCI-H929 cells = test: NCI-H929 cell proliferation assay (CellTiter-Glo); type: cell-based; conditions: 72 h compound treatment
Protocol: NCI-H929 Cell Proliferation Assay
Cell proliferation was measured using the CellTiter-Glo® Luminescent Cell Viability Assay. The assay involved the addition of a single reagent (CellTiter-Glo® Reagent) directly to cells cultured in serum-supplemented medium. NCI-H929 (ATCC CRL-9068) cells were cultured according to ATCC recommendations and were seeded at 3,000 cells per well.
Each compound evaluated was prepared as a DMSO stock solution (10 mM). Compounds were tested in duplicate on each plate, with a 10-point serial dilution curve (1:3 dilution). Compound treatment ([…]) was added from the compound dilution plate to the cell plate. The highest compound concentration was 10 μM (final), with a 0.1% final DMSO concentration. Plates were then incubated at 37° C., 5% CO2. After 72 h of compound treatment, cell plates were equilibrated at rt for approximately 30 mins. An equi-volume amount of CellTiter-Glo® Reagent (40 μL) was added to each well. Plates were mixed for 2 mins on an orbital shaker to induce cell lysis and then incubated at rt for 10 mins to stabilize the luminescent signal. Luminescence was recorded using an Envision plate reader according to CellTiter-Glo protocol. IC50 of each compound was calculated using GraphPad Prism by nonlinear regression analysis.

Sequence of Mcl-1 (Q07820 whole entry): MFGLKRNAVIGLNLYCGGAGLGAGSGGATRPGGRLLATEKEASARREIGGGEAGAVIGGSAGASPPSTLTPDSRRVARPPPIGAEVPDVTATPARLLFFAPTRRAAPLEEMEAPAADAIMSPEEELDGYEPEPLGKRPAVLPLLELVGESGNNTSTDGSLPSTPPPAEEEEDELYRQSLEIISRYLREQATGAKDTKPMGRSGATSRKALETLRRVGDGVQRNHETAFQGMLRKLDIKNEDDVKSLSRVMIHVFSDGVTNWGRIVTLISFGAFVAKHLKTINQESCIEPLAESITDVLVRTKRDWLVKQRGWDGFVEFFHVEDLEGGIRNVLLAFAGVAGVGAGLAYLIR

IC50 (Mcl-1) [µM]	IC50 (NCI-H929 cells; Homo sapiens, NCI-H929, 72 h) [µM]	IC50 (NCI-H929 cells) [µM]	SMILES
< 0.01	≤ 0.1	–	Cn1nc2cc1CSc1cc3c(c(c1)OCCCc1c(C(=O)O)n(C)c4c(c(Cl)ccc14)-c1c(nn4c1CCC4)CSC2)NCCC3 (single isomer, unassigned) [Example 1A, (Ra)-(+)-(Z)-1^6-Chloro-1^1,6^1-dimethyl-2^5,2^6,9^1,9^2,9^3,9^4-hexahydro-1^1H,2^4H,6^1H-10-oxa-4,8-dithia-9(6,8)-quinolina-1(7,3)-indola-2(3,2)-pyrrolo[1,2-b]pyrazola-6(3,5)-pyrazolacyclotridecaphane-1^2-carboxylic acid]
< 0.01	≤ 0.1	–	Cn1nc2cc1CSc1cc3c(c(c1)OCCCc1c(C(=O)O)n(C)c4c(c(Cl)ccc14)-c1c(nn4c1CCCC4)CSC2)NCCC3 (single isomer, unassigned) [Example 2A, (Ra)-(+)-(Z)-1^6-chloro-1^1,6^1-dimethyl-2^4,2^5,2^6,2^7,9^1,9^2,9^3,9^4-octahydro-1^1H,6^1H-10-oxa-4,8-dithia-9(6,8)-quinolina-2(3 ,2)-pyrazolo[1,5-a]pyridina-1(7 ,3)-indola-6(3,5)-pyrazolacyclotridecaphane-1^2-carboxylic acid]
–	–	≤ 0.1	Cc1nn(C23CC(C2)C3)c2c1-c1c(Cl)ccc3c(c(C(=O)O)n(C)c13)CCCOc1cc(cc3c1NCCC3)SCc1cc(nn1C)CSC2 (atropisomer, axis not shown; (Sa)) [Example 9B, (Sa)-(−)-(Z)-2^1-(Bicyclo[1.1.1]pentan-1-yl)-1^6-chloro-1^1,2^3,6^1-trimethyl-9^1,9^2,9^3,9^4-tetrahydro-1^1H,2^1H,6^1H-10-oxa-4,8-dithia-9(6,8)-quinolina-1(7,3)-indola-2(4,5),6(3,5)-dipyrazolacyclotridecaphane-1^2-carboxylic acid]
–	–	≥ 1	CCn1nc(C)c2c1CSCc1cc(n(C)n1)CSc1cc3c(c(c1)OCCCc1c(C(=O)O)n(C)c4c-2c(Cl)ccc14)NCCC3 (atropisomer, axis not shown; (Sa)) [Example 14B, (Sa)-(−)-(Z)-1^6-Chloro-2^1-ethyl-1^1,2^3,6^1-trimethyl-9^1,9^2,9^3,9^4-tetrahydro-1^1H,2^1H,6^1H-10-oxa-4,8-dithia-9(6,8)-quinolina-1(7,3)-indola-2(4,5),6(3,5)-dipyrazolacyclotridecaphane-1^2-carboxylic acid]
–	–	0.1 to 1	Cn1nc2cc1CSc1cc3c(c(c1)OCCCc1c(C(=O)O)n(C)c4c(c(Cl)ccc14)-c1c(nn4c1CCCC4)CNC2)NCCC3 (atropisomer, axis not shown) [Example 12B, (Sa)-(−)-(Z)-1^6-Chloro-1^1,6^1-dimethyl-2^4,2^5,2^6,2^7,9^1,9^2,9^3,9^4-octahydro-1^1H,6^1H-10-oxa-8-thia-4-aza-9(6,8)-quinolina-2(3,2)-pyrazolo[1,5-a]pyridina-1(7,3)-indola-6(3,5)-pyrazolacyclotridecaphane-1^2-carboxylic acid]
–	–	≤ 0.1	CN1Cc2cc(n(C)n2)CCc2cc3c(c(c2)OCCCc2c(C(=O)O)n(C)c4c(c(Cl)ccc24)-c2c(nn4c2CCC4)C1)NCCC3 (atropisomer, axis not shown; (Ra)) [Example 5A, (Ra)-(+)-(Z)-1^6-Chloro-1^1,6^1,4-trimethyl-2^5,2^6,9^1,9^2,9^3,9^4-hexahydro-1^1H,2^4H,6^1H-10-oxa-4-aza-9(6,8)-quinolina-1(7,3)-indola-2(3,2)-pyrrolo[1,2-b]pyrazola-6(3,5)-pyrazolacyclotridecaphane-1^2-carboxylic acid]
–	–	≤ 0.1	CN1Cc2cc(n(C)n2)CCc2cc3c(c(c2)OCCCc2c(C(=O)O)n(C)c4c(c(Cl)ccc24)-c2c(nn4c2CCCC4)C1)NCCC3 (atropisomer, axis not shown; (Ra)) [Example 6A, (Ra)-(+)-(Z)-1^6-Chloro-1^1,6^1,4-trimethyl-2^4,2^5,2^6,2^7,9^1,9^2,9^3,9^4-octahydro-1^1H,6^1H-10-oxa-4-aza-9(6,8)-quinolina-2(3,2)-pyrazolo[1,5-a]pyridina-1(7,3)-indola-6(3,5)-pyrazolacyclotridecaphane-1^2-carboxylic acid]
–	–	≤ 0.1	Cc1nn(C23CC(C2)C3)c2c1-c1c(F)ccc3c(c(C(=O)O)n(C)c13)CCCOc1cc(cc3c1NCCC3)SCc1cc(nn1C)CSC2 (atropisomer, axis not shown; (Sa)) [Example 10B, (Sa)-(−)-(Z)-2^1-(Bicyclo[1.1.1]pentan-1-yl)-1^6-fluoro-1^1,2^3,6^1-trimethyl-9^1,9^2,9^3,9^4-tetrahydro-1^1H,2^1H,6^1H-10-oxa-4,8-dithia-9(6,8)-quinolina-1(7,3)-indola-2(4,5),6(3,5)-dipyrazolacyclotridecaphane-1^2-carboxylic acid]
–	–	≤ 0.1	CCn1nc(C)c2c1CSCc1cc(n(C)n1)CSc1cc3c(c(c1)OCCCc1c(C(=O)O)n(C)c4c-2c(Cl)ccc14)NCCC3 (atropisomer, axis not shown; (Ra)) [Example 14A, (Ra)-(+)-(Z)-1^6-Chloro-2^1-ethyl-1^1,2^3,6^1-trimethyl-9^1,9^2,9^3,9^4-tetrahydro-1^1H,2^1H,6^1H-10-oxa-4,8-dithia-9(6,8)-quinolina-1(7,3)-indola-2(4,5),6(3,5)-dipyrazolacyclotridecaphane carboxylic acid]
